This passage reports IC50 results from patent US8445505B2 (IRM LLC, priority 2008, dated 2013).

The structures appear in SMILES notation. pIC50: −log10 of the molar value.

IGF1R Ba/F3, sequence (P08069 999-1274 limits assumed): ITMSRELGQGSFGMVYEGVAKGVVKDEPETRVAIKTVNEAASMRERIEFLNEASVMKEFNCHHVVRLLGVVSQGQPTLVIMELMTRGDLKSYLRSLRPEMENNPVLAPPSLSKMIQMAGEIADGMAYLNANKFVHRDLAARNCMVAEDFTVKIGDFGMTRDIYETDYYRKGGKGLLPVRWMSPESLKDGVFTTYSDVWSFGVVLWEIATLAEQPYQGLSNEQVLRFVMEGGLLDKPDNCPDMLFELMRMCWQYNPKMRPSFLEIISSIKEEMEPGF

The experiment has as its target IGF1R Ba/F3 (Homo sapiens, UniProt P08069). As to the kind of experiment: Ba/F3 Cell Viability Inhibition Assay (Tel-TK transformed Ba/F3 lines). It is filed as cell-based, murine. The arrangement: the printed alternative. Conditions: Tel-TK (IGF1R) transformed Ba/F3 cells, 48 hours incubation, cell viability (Britelite luminescence). The text has this:
Ba/F3 is a murine IL-3-dependent pro-B lymphoma cell line. Parental Ba/F3 cells are used to generate a panel of sublines whose proliferation and survival is rendered IL-3-independent by stable transduction with individual tyrosine kinases activated by fusion with the amino-terminal portion of TEL (amino acid 1-375) or BCR. In order to generate Ba/F3 cell lines transformed by Tel-Tyrosine Kinase (TK) fusions, parental Ba/F3 cells are infected with a retrovirus harboring each TEL-fusion kinase and subjected to puromycin selection and IL-3 withdrawal to obtain IL-3-independent, transformed Ba/F3 cells.
Each transformed Ba/F3 cells are cultured in RPMI-1640 media (Gibco Cat #11875093, Carlsbad, Calif.) supplemented with 10% FBS (Hyclone Cat #SV30014.03, Logan, Utah), 4.5 g/L glucose (Sigma #G5400, St.Louis, Mo.), 1.5 g/L sodium bicarbonate (Biowhittaker #17-613E, Walkersville, Md.) and Pen/Strep (Gibco #10378-016, Carlsbad, Calif.). Cells are splitted twice weekly.
The potency of test compounds against various Tel-TK transformed Ba/F3 lines is determined as follows. Exponentially growing BaF3 Tel-TK cells are diluted in fresh medium to 75,000 cells/mL and seeded into 384-well plates (3750 cells/well) at 50 μL/well using a gill liquid dispenser (BioTek, Winooski, Vt., USA). Duplicate plates are run for each cell line. Test and control compounds are serially diluted with DMSO and arrayed in a polypropylene 384-well plate. 50 nL of compound is transferred into the assay plates using a pin-transfer device, and the plates are incubated at 37° C. (5% CO2) for 48 hours. 25 μL Britelite (Perkin Elmer) is added and luminescence is quantified using Analyst GT (Molecular Devices). Custom curve-fitting software is used to produce a logistic fit of percent cell viability as a function of the logarithm of inhibitor concentration. The IC50 is interpolated as the concentration of compound needed to reduce cell viability to 50% of a DMSO control. Parental Ba/F3 cells that are maintained and cultured in presence of IL-3 (1 ng/ml in final) are diluted in fresh medium containing IL-3 (1 ng/ml in final) to 75,000 cells/mL following the same procedure as described above.
Consider `Cc1cc(Nc2nc(Nc3cc(F)c(-c4cnn(C)c4)cc3C)ncc2Cl)n[nH]1` [Compound 27, 5-chloro-N2-(5-fluoro-2-methyl-4-(1-methyl-1H-pyrazol-4-yl)phenyl)-N4-(5-methyl-1H-pyrazol-3-yl)pyrimidine-2,4-diamine], for which the negative-log IC50 (pIC50) was 6.26.

Regarding `Cc1cc(Nc2nc(Nc3cc(C)c([C@H]4CC[C@@H](O)CC4)cc3F)ncc2Cl)n[nH]1` [Compound 73, Cis-4-(4-(5-chloro-4-(5-methyl-1H-pyrazol-3-ylamino)pyrimidin-2-ylamino)-5-fluoro-2-methylphenyl)cyclohexanol], the pIC50 was 7.49.

The molecule `COc1cc(-c2cnco2)c(C)cc1Nc1ncc(Cl)c(Nc2cc(C)[nH]n2)n1` [Compound 21, 5-chloro-N2-(2-methoxy-5-methyl-4-(oxazol-5-yl)phenyl)-N4-(5-methyl-1H-pyrazol-3-yl)pyrimidine-2,4-diamine] showed a pIC50 of 6.77.

Turning to `Cc1cc(Nc2nc(Nc3cc(C)c([C@H]4CC[C@H](O)CC4)cc3C)ncc2C(F)(F)F)n[nH]1` [Compound 41, trans-4-(2,5-dimethyl-4-(4-(5-methyl-1H-pyrazol-3-ylamino)-5-(trifluoromethyl)pyrimidin-2-ylamino)phenyl)cyclohexanol], the negative logarithm of the IC50 (pIC50) is 7.60. This pIC50 lies 0.83 log units higher than the previous one.

For `Cc1cc(Nc2nc(Nc3cc(C)c(-c4ncc[nH]4)cc3F)ncc2Cl)n[nH]1` [Compound 19, 5-chloro-N2-(2-fluoro-4-(1H-imidazol-2-yl)-5-methylphenyl)-N4-(5-methyl-1H-pyrazol-3-yl)pyrimidine-2,4-diamine], the pIC50 was 6.54.

With `O=C1NCc2cc(F)c(Nc3ncc(Cl)c(Nc4cc(C5CC5)[nH]n4)n3)cc21` [Compound 81, 6-(5-chloro-4-(5-cyclopropyl-1H-pyrazol-3-ylamino)pyrimidin-2-ylamino)-5-fluoroisoindolin-1-one], the pIC50 was 5.64.

`Cc1cc(Nc2nc(Nc3cc(C)c(C(=O)N(C)C)cc3C)ncc2Cl)n[nH]1` [Compound 30, 4-(5-chloro-4-(5-methyl-1H-pyrazol-3-ylamino)pyrimidin-2-ylamino)-N,N,2,5-tetramethylbenzamide] gave a pIC50 of 6.27.

`Cc1cc(Nc2nc(Nc3cc(C)c([C@H]4CC[C@@H](N5C[C@@H](O)[C@H](O)C5)CC4)cc3F)ncc2C(F)(F)F)n[nH]1` [Compound 71, (3R,4R)-1-((cis)-4-(5-fluoro-2-methyl-4-(4-(5-methyl-1H-pyrazol-3-ylamino)-5-(trifluoromethyl)pyrimidin-2-ylamino)phenyl)cyclohexyl)pyrrolidine-3,4-diol] had a pIC50 of 6.96.

The molecule `Cc1cc(Nc2nc(Nc3cc(C)c([C@H]4CC[C@@H](N5C[C@H](O)[C@@H](O)C5)CC4)cc3F)ncc2C(F)(F)F)n[nH]1` [Compound 68, (3S,4S)-1-((cis)-4-(5-fluoro-2-methyl-4-(4-(5-methyl-1H-pyrazol-3-ylamino)-5-(trifluoromethyl)pyrimidin-2-ylamino)phenyl)cyclohexyl)pyrrolidine-3,4-diol] showed a pIC50 of 6.92. This pIC50 and that of the molecule before are within 0.2 log units of each other.

`Cc1ccc(-c2cc(F)c(Nc3ncc(Cl)c(Nc4cc(C)[nH]n4)n3)cc2C)cn1` [Compound 5, 5-chloro-N2-(2-fluoro-5-methyl-4-(6-methylpyridin-3-yl)phenyl)-N4-(5-methyl-1H-pyrazol-3-yl)pyrimidine-2,4-diamine] had a pIC50 of 6.86.

Consider `Cc1cc(Nc2nc(Nc3ccc(C4CCN(CC(O)C(F)(F)F)CC4)c4ccccc34)ncc2Cl)n[nH]1` (stereo not shown) [Compound 88, 3-(4-(4-(5-chloro-4-(5-methyl-1H-pyrazol-3-ylamino)pyrimidin-2-ylamino)naphthalen-1-yl)piperidin-1-yl)-1,1,1-trifluoropropan-2-ol], for which the pIC50 was 6.46.

Regarding `Cc1cc(Nc2nc(Nc3cc(C)c([C@H]4CC[C@@H](O)CC4)cc3C)ncc2C(F)(F)F)n[nH]1` [Compound 42, cis-4-(2,5-dimethyl-4-(4-(5-methyl-1H-pyrazol-3-ylamino)-5-(trifluoromethyl)pyrimidin-2-ylamino)phenyl)cyclohexanol], the pIC50 was 7.28.

Regarding `Cc1cc(Nc2nc(Nc3cc(C)c([C@H]4CC[C@@H](N5CCCCC5)CC4)cc3C)ncc2C(F)(F)F)n[nH]1` [Compound 60, N2-(2,5-dimethyl-4-((cis)-4-(piperidin-1-yl)cyclohexyl)phenyl)-N4-(5-methyl-1H-pyrazol-3-yl)-5-(trifluoromethyl)pyrimidine-2,4-diamine], the pIC50 is 8.40.

Molecule `Cc1cc(Nc2nc(Nc3cc(C)c([C@H]4CC[C@@H](N5CCOCC5)CC4)cc3F)ncc2Cl)n[nH]1` [Compound 51, Cis-5-chloro-N2-(2-fluoro-5-methyl-4-(4-morpholinocyclohexyl)phenyl)-N4-(5-methyl-1H-pyrazol-3-yl)pyrimidine-2,4-diamine] gave a pIC50 of 6.40.

Turning to `Cc1cc(Nc2nc(Nc3cc(C)c([C@H]4CC[C@H](O)CC4)cc3F)ncc2Cl)n[nH]1` [Compound 72, Trans-4-(4-(5-chloro-4-(5-methyl-1H-pyrazol-3-ylamino)pyrimidin-2-ylamino)-5-fluoro-2-methylphenyl)cyclohexanol], the pIC50 is 7.00. Compared with the last molecule, the pIC50 is 0.60 log units higher.

For the molecule `CNC(=O)CN1CCC(c2ccc(Nc3ncc(Cl)c(Nc4cc(C)[nH]n4)n3)c3ccccc23)CC1` [Compound 87, 2-(4-(4-(5-chloro-4-(5-methyl-1H-pyrazol-3-ylamino)pyrimidin-2-ylamino)naphthalen-1-yl)piperidin-1-yl)-N-methylacetamide], the pIC50 was 7.09.

`Cc1cc(Nc2nc(Nc3cc(C)c([C@H]4CC[C@H](NC5CC5)CC4)cc3C)ncc2Cl)n[nH]1` [Compound 46, Trans-5-chloro-N2-(4-(4-(cyclopropylamino)cyclohexyl)-2,5-dimethylphenyl)-N4-(5-methyl-1H-pyrazol-3-yl)pyrimidine-2,4-diamine]: the pIC50 is 7.80.

In turn, `Cc1cc(Nc2nc(Nc3cc(C)c(-c4cnc5ccccc5c4)cc3F)ncc2Cl)n[nH]1` [Compound 7, 5-chloro-N2-(2-fluoro-5-methyl-4-(quinolin-3-yl)phenyl)-N4-(5-methyl-1H-pyrazol-3-yl)pyrimidine-2,4-diamine] showed a pIC50 of 6.24.

Molecule `Cc1cc(Nc2nc(Nc3cc(C)c([C@H]4CC[C@H](N5CCN(C)CC5)CC4)cc3F)ncc2Cl)[nH]n1` [Compound 53, Trans-5-chloro-N2-(2-fluoro-5-methyl-4-(4-(4-methylpiperazin-1-yl)cyclohexyl)phenyl)-N4-(5-methyl-1H-pyrazol-3-yl)pyrimidine-2,4-diamine] had a pIC50 of 7.60.

Regarding `Cc1cc(Nc2nc(Nc3cc(C)c([C@H]4CC[C@H](N5C[C@H](O)[C@@H](O)C5)CC4)cc3F)ncc2C(F)(F)F)n[nH]1` [Compound 69, (3S,4S)-1-((trans)-4-(5-fluoro-2-methyl-4-(4-(5-methyl-1H-pyrazol-3-ylamino)-5-(trifluoromethyl)pyrimidin-2-ylamino)phenyl)cyclohexyl)pyrrolidine-3,4-diol], the pIC50 was 6.52.

`Cc1cc(Nc2nc(Nc3cc4c(cc3F)CNC4=O)ncc2Cl)n[nH]1` [Compound 82, 6-(5-chloro-4-(5-methyl-1H-pyrazol-3-ylamino)pyrimidin-2-ylamino)-5-fluoroisoindolin-1-one]: the pIC50 is 5.58.

The molecule `Cc1cc(Nc2nc(Nc3cc(C)c([C@H]4CC[C@H](N5CCNCC5)CC4)cc3F)ncc2Cl)n[nH]1` [Compound 59, 5-chloro-N2-(2-fluoro-5-methyl-4-((trans)-4-(piperazin-1-yl)cyclohexyl)phenyl)-N4-(5-methyl-1H-pyrazol-3-yl)pyrimidine-2,4-diamine] showed a pIC50 of 7.41.

`Cc1cc(Nc2nc(Nc3ccc(C4CCN(CC(N)=O)CC4)c4ccncc34)ncc2Cl)n[nH]1` [Compound 77, 2-(4-(8-(5-chloro-4-(5-methyl-1H-pyrazol-3-ylamino)pyrimidin-2-ylamino)isoquinolin-5-yl)piperidin-1-yl)acetamide] showed a pIC50 of 5.48.

Turning to `Cc1cc(Nc2nc(Nc3ccc(C4CCN(CCS(C)(=O)=O)CC4)c4cccnc34)ncc2Cl)n[nH]1` [Compound 78, 5-chloro-N4-(5-methyl-1H-pyrazol-3-yl)-N2-(5-(1-(2-(methylsulfonyl)ethyl)piperidin-4-yl)quinolin-8-yl)pyrimidine-2,4-diamine], the pIC50 is 6.39. This pIC50 lies 0.91 log units higher than the previous one.

In turn, `Cc1cc(Nc2nc(Nc3cc(C)c([C@H]4CC[C@@H](N5CCCCC5)CC4)cc3C)ncc2Cl)n[nH]1` [Compound 43, Cis-5-chloro-N2-(2,5-dimethyl-4-(4-(pipcridin-1-yl)cyclohexyl)phenyl)-N4-(5-methyl-1H-pyrazol-3-yl)pyrimidine-2,4-diamine] gave a pIC50 of 8.10.

The term pIC50 denotes the negative decadic logarithm of the IC50, by convention in mol/L. Low readings indicate a high IC50, high ones a low IC50.
